Laboratory results as given in paper PMC11044151, “Development of Half-Sandwich Ru, Os, Rh, and Ir Complexes Bearing the Pyridine-2-ylmethanimine Bidentate Ligand Derived from 7-Chloroquinazolin-4(3H)-one with Enhanced Antiproliferative Activity” (ACS Omega, 2024).

Tests used:
SW620 cells = experiment: Cell cycle distribution by flow cytometry, SW620; assay type: cell-based, human; conditions: concentration equal to IC75 of (S)-1 / (R)-1, mean ± SEM, n = 3; for Cell cycle fraction G1, 24 h / Cell cycle fraction G2/M, 24 h / Cell cycle fraction S, 24 h: SW620, 24 h; for Cell cycle fraction G1, 48 h / Cell cycle fraction G2/M, 48 h / Cell cycle fraction S, 48 h: SW620, 48 h
Outline: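 SW620 (and resistant SW620E) cells seeded at 10^5/well, exposed to compounds 24 and 48 h, ethanol-fixed, then stained with 75 μM propidium iodide plus RNase A for 30 min at 37 °C. Flow cytometry read-out; phase distribution by the Watson pragmatic algorithm.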

SW620E = experiment: Neutral red uptake antiproliferative assay, MDR line SW620E; assay type: cell-based, human; conditions: for IC50: exposure time 72 h, n = 3, ABCC1- and ABCB1-overexpressing MDR line; for activity factor IC50(1)/IC50(3a–4d), SW620E: vs corresponding amine (R)-1 or (S)-1, 72 h
SW620D = experiment: Neutral red uptake antiproliferative assay, MDR line SW620D; assay type: cell-based, human; conditions: for IC50: exposure time 72 h, n = 3, ABCB1-overexpressing MDR line; for activity factor IC50(1)/IC50(3a–4d), SW620D: vs corresponding amine (R)-1 or (S)-1, 72 h
Outline: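 Read-out: neutral red uptake, normalised to untreated control (% of control). Cells: SW620 MDR sublines; SW620C/SW620Mito overexpress ABCG2, SW620M ABCC1, SW620D ABCB1.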

SW620V = experiment: Neutral red uptake antiproliferative assay, MDR line SW620V; assay type: cell-based, human; conditions: for IC50: exposure time 72 h, n = 3, ABCB1-overexpressing MDR line; for activity factor IC50(1)/IC50(3a–4d), SW620V: vs corresponding amine (R)-1 or (S)-1, 72 h
KSP = biological target: T1, KSP (Homo sapiens, UniProt P52732); experiment: Kinesin ATPase inhibition (ATP hydrolysis) end-point assay; assay type: biochemical; conditions: for KSP residual activity: 100 nM stated for ispinesib and (R)-1, concentration not restated for the complexes
T1 construct: purchased Cytoskeleton, Inc
T1 sequence (P52732 1-368 limits assumed): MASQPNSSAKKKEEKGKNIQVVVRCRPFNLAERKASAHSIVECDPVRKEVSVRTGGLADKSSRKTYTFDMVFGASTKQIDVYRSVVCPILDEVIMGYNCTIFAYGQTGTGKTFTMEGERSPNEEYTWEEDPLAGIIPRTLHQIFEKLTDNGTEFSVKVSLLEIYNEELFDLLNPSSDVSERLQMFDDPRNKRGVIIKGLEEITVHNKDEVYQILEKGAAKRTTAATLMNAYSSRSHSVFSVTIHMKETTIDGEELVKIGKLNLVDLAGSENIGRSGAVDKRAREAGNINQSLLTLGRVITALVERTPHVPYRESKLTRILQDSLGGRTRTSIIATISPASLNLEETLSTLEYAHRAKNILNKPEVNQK
Protocol: The mechanism of the anticancer activity of ispinesib is related to the inhibition of the activity of the KSP. Thus, we studied the synthesized compounds’ ability to inhibit KSP activity using the adenosine 5′-triphosphate (ATP) hydrolysis assay.
The potential kinesin modulatory activity of tested compounds was performed using a Kinesin ATPase end-point biochem kit (Cytoskeleton, Inc.). […] The experiment was performed according to the manufacturer’s instructions. One μg of tested kinesin (KSP) was used per reaction. Phosphate release was measured at the absorbance 650 nm using an EnVision multilabel plate reader (PerkinElmer).

Colo205 = experiment: cells; conditions: for IC50: read-out: IC50 Colo205, exposure time 72 h, n = 3, 95% CI given; for activity factor IC50(1)/IC50(3a–4d), Colo205: vs corresponding amine (R)-1 or (S)-1, 72 h
Outline: (§1)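 Following overnight attachment, cultures received compound for 70 h, then 1 mM neutral red for 2 h, an ice-cold PBS wash and acidified-ethanol extraction before reading at 540 nm. Medium was glucose-rich DMEM plus GlutaMax, HEPES and 10% serum; IC50 and IC90 were computed from five-parameter logistic curves.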

HepG2 = experiment: cells; conditions: for IC50: read-out: IC50 HepG2, exposure time 72 h, n = 3, 95% CI given; for activity factor IC50(1)/IC50(3a–4d), HepG2: vs corresponding amine (R)-1 or (S)-1, 72 h
Outline: as §1

MCF7 = experiment: cells; conditions: for IC50: read-out: IC50 MCF7, exposure time 72 h, n = 3, 95% CI given; for activity factor IC50(1)/IC50(3a–4d), MCF7: vs corresponding amine (R)-1 or (S)-1, 72 h
Outline: as §1

Row | Compound | Cell cycle fraction G1, 24 h (SW620 cells) [%] | Cell cycle fraction G2/M, 24 h (SW620 cells) [%] | Cell cycle fraction S, 24 h (SW620 cells) [%] | Cell cycle fraction G1, 48 h (SW620 cells) [%] | Cell cycle fraction G2/M, 48 h (SW620 cells) [%] | Cell cycle fraction S, 48 h (SW620 cells) [%] | IC50 (SW620E) [µM] | activity factor IC50(1)/IC50(3a–4d), SW620E (SW620E) | IC50 (SW620D) [µM] | activity factor IC50(1)/IC50(3a–4d), SW620D (SW620D) | IC50 (SW620V) [µM] | activity factor IC50(1)/IC50(3a–4d), SW620V (SW620V) | IC50 (Colo205) [µM] | activity factor IC50(1)/IC50(3a–4d), Colo205 (Colo205) | IC50 (HepG2) [µM] | activity factor IC50(1)/IC50(3a–4d), HepG2 (HepG2) | IC50 (MCF7) [µM] | activity factor IC50(1)/IC50(3a–4d), MCF7 (MCF7) | KSP residual activity (KSP) [%] | further results
1 | CC(C)[C@@H](N=Cc1ccccn1)c1nc2cc(Cl)ccc2c(=O)n1Cc1ccccc1.Cc1ccc(C(C)C)cc1.F[P-](F)(F)(F)(F)F.[Cl-].[Ru+2] [Compound 3a, [(cym)Ru((R)-2)Cl]PF6] | 51.9 ± 1.0 | 32.5 ± 1.5 | 14.9 ± 0.6 | 44.8 ± 0.7 | 40.2 ± 1.1 | 14.3 ± 0.4 | 5.52 | (0.151) | 7.23 | (0.155) | 4.71 | (0.044) | 1.26 | (0.085) | 1.57 | (0.360) | 0.858 | (0.269) |  | KSP inhibitory activity (in words) (KSP; 100, 300 and 1000 nM): nonactive
2 | CC(C)[C@@H](N=Cc1ccccn1)c1nc2cc(Cl)ccc2c(=O)n1Cc1ccccc1.Cc1ccc(C(C)C)cc1.F[P-](F)(F)(F)(F)F.[Cl-].[Os+2] [Compound 3b, [(cym)Os((R)-2)Cl]PF6] | 51.4 ± 1.2 | 35.3 ± 1.4 | 12.5 ± 2.1 | 41.4 ± 0.7 | 45.0 ± 0.5 | 12.7 ± 1.1 | 3.52 | (0.237) | 3.92 | (0.286) | 1.03 | (0.200) | 0.448 | (0.239) | 0.188 | (3.01) | 0.073 | (3.16) | 71.8 | increased cytotoxicity vs corresponding amine 1, HepG2 (HepG2): 3 fold; increased cytotoxicity vs corresponding amine 1, MCF7 (MCF7): 3 fold
3 | CC(C)[C@@H](N=Cc1ccccn1)c1nc2cc(Cl)ccc2c(=O)n1Cc1ccccc1.Cc1c(C)c(C)[c-](C)c1C.F[P-](F)(F)(F)(F)F.[Cl-].[Rh+3] [Compound 3c, [(Cp*)Rh((R)-2)Cl]PF6] | 33.9 ± 2.5 | 40.9 ± 3.5 | 24.2 ± 1.4 | 23.1 ± 1.7 | 54.5 ± 1.8 | 20.8 ± 2.2 | 0.88 | (0.949) | 4.18 | (0.268) | 0.21 | (0.981) | 0.138 | (0.775) | 0.689 | (0.821) | 0.357 | (0.647) | 47.5 | 
4 | CC(C)[C@@H](N=Cc1ccccn1)c1nc2cc(Cl)ccc2c(=O)n1Cc1ccccc1.Cc1c(C)c(C)[c-](C)c1C.F[P-](F)(F)(F)(F)F.[Cl-].[Ir+3] [Compound 3d, [(Cp*)Ir((R)-2)Cl]PF6] | 30.8 ± 0.8 | 43.4 ± 1.5 | 25.4 ± 0.8 | 24.3 ± 1.2 | 55.9 ± 1.1 | 19.3 ± 0.4 | 1.02 | (0.819) | 0.644 | (1.74) | 0.267 | (0.771) | 0.524 | (0.204) | 0.454 | (1.25) | 0.653 | (0.354) | 64.0 | higher cytotoxicity than corresponding amine 1, SW620D (SW620D; rounded value): 1.7 fold
